For ten compounds, Kd results are on record in ChEMBL document CHEMBL3991601, “The target landscape of clinical kinase drugs” (Science, 2017).

The target in one assay is Misshapen-like kinase 1 (Homo sapiens, UniProt Q8N4C8).
The target in assay [1] is Dual specificity testis-specific protein kinase 2 (Homo sapiens, UniProt Q96S53).
In assay [2] the target is Ribosomal protein S6 kinase alpha-1 (Homo sapiens, UniProt Q15418).
Assay [3] addresses Cyclin-dependent kinase 12 (Homo sapiens, UniProt Q9NYV4).
The target in assay [4] is Casein kinase I isoform delta (Homo sapiens, UniProt P48730).
Assay [5] addresses T1, Serine/threonine-protein kinase Chk1 (Homo sapiens, UniProt O14757).
T1 sequence (O14757 whole entry): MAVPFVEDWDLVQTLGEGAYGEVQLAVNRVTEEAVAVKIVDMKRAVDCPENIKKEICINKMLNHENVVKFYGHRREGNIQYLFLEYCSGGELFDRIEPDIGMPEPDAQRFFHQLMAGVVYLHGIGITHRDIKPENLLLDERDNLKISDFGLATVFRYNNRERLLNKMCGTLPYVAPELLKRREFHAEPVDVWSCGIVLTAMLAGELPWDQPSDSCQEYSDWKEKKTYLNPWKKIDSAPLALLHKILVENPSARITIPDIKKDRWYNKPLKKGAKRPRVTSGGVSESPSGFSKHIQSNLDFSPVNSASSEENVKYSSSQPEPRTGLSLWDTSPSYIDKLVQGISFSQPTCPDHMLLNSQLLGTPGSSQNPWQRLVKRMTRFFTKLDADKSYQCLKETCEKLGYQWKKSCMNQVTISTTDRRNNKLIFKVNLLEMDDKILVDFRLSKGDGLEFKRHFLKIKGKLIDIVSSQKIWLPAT

Assay [6] has as its target Cyclin-dependent kinase 4 (Homo sapiens, UniProt P11802).
The target in assay [7] is Ribosomal protein S6 kinase alpha-4 (Homo sapiens, UniProt O75676).
In assay [8] the target is Serine/threonine-protein kinase 24 (Homo sapiens, UniProt Q9Y6E0).
Assay [9] concerns the target Serine/threonine-protein kinase PAK 2 (Homo sapiens, UniProt Q13177).
The target of assay [10] is PAS domain-containing serine/threonine-protein kinase (Homo sapiens, UniProt Q96RG2).
Assay [11] addresses T2, Cysteine--tRNA ligase, cytoplasmic (Homo sapiens, UniProt P49589).
T2 sequence (P49589 whole entry): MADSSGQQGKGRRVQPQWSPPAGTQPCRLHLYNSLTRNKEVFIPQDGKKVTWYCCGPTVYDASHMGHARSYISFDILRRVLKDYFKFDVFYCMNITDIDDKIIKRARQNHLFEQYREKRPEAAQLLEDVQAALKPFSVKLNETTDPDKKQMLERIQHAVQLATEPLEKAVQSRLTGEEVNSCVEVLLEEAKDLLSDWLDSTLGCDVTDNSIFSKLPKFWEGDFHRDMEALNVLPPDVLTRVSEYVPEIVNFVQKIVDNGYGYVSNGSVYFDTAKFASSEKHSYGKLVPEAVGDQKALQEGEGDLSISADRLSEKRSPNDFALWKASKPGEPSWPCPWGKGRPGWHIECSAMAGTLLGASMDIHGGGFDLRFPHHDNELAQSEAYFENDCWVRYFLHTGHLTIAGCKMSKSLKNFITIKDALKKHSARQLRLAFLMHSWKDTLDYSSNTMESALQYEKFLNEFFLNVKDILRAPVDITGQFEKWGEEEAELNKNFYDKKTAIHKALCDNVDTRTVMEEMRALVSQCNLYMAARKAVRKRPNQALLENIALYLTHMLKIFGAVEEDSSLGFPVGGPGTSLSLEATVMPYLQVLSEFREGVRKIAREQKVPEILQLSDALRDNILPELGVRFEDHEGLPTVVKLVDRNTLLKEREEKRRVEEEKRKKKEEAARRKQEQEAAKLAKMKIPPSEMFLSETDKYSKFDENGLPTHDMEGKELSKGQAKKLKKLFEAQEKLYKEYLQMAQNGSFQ

In assay [12] the target is T3, Isoleucine--tRNA ligase, mitochondrial (Homo sapiens, UniProt Q9NSE4).
T3 sequence (Q9NSE4 whole entry): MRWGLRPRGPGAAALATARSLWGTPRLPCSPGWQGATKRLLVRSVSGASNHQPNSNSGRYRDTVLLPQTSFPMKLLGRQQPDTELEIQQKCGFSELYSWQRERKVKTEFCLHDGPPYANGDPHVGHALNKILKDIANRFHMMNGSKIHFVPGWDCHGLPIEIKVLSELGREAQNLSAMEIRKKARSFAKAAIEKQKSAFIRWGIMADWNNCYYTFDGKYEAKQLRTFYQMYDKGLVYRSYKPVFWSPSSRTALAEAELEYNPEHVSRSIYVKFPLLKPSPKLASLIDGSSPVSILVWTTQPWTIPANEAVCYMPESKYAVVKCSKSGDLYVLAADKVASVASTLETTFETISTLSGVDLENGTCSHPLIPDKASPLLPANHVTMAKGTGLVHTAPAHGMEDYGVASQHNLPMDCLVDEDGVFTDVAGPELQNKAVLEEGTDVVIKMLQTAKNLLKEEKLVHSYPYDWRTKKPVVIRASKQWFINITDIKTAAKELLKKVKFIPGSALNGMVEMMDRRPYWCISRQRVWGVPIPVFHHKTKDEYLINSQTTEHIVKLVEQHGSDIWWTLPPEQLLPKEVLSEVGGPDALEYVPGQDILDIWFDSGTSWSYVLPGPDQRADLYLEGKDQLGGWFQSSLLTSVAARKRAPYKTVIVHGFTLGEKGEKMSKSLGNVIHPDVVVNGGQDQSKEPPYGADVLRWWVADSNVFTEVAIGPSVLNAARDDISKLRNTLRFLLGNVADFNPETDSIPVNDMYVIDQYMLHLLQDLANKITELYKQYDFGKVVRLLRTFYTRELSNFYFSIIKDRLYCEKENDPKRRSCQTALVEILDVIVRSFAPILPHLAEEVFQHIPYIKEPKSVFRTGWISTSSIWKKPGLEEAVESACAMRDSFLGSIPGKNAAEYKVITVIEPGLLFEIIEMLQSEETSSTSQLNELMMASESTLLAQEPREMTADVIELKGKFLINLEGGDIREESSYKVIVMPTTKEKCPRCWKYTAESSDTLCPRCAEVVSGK

Structures are written as SMILES. Calls of active or inactive are those of the source. Where only a bound is given, the exact number is not on record here.
Note: in the data inactive means no Kd found up to 30 µM.

Serine/threonine-protein kinase 24, sequence (Q9Y6E0 whole entry): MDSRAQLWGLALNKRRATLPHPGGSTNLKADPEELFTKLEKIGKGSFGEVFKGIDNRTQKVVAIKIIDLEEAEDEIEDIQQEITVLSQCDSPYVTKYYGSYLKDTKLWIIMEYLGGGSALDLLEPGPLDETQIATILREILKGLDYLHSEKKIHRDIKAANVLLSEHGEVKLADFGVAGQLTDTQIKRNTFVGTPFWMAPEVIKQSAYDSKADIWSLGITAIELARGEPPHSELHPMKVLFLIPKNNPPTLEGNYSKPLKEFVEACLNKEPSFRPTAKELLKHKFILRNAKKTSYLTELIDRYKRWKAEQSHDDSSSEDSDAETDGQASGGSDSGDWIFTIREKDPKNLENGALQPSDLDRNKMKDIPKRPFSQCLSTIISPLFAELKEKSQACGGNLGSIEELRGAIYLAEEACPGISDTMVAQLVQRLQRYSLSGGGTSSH
Casein kinase I isoform delta, sequence (P48730 whole entry, canonical isoform): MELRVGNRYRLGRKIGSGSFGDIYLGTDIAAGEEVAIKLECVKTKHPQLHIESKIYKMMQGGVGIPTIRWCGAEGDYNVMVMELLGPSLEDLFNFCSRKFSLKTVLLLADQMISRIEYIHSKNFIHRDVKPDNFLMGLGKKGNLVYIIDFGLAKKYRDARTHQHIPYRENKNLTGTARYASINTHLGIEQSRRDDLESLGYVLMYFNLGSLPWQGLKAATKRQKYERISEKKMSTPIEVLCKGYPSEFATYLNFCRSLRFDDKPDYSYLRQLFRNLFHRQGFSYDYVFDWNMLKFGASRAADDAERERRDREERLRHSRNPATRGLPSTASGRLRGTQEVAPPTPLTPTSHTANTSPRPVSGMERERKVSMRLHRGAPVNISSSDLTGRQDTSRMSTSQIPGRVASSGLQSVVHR
Cyclin-dependent kinase 4, sequence (P11802 whole entry): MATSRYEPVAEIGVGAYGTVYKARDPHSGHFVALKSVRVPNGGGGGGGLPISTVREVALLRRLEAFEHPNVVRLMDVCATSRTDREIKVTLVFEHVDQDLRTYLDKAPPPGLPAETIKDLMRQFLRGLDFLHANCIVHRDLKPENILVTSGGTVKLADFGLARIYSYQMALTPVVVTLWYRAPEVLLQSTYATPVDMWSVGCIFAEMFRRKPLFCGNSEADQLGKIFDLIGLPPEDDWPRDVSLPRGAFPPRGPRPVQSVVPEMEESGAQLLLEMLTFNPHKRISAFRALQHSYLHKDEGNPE
Ribosomal protein S6 kinase alpha-4, sequence (O75676 whole entry): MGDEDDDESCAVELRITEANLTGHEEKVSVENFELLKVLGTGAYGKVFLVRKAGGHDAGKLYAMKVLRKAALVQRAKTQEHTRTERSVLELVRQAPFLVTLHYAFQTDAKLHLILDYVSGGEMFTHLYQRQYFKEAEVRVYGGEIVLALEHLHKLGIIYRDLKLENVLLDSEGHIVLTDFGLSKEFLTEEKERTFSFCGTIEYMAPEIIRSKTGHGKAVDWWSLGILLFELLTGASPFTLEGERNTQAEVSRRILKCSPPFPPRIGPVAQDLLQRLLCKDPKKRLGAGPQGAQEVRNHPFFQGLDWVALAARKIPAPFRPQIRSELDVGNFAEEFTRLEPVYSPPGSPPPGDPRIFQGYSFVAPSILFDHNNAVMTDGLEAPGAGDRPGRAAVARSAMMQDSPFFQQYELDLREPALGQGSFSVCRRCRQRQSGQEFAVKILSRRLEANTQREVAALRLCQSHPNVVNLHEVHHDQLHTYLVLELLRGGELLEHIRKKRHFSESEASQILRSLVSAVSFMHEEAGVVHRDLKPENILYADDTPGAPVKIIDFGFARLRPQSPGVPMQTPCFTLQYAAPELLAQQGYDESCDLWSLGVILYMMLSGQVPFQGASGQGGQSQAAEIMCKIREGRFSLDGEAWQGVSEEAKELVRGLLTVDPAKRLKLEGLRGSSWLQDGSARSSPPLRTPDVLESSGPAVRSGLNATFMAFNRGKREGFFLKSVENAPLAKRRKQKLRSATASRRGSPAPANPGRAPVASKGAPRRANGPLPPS
Cyclin-dependent kinase 12, sequence (Q9NYV4 whole entry, canonical isoform): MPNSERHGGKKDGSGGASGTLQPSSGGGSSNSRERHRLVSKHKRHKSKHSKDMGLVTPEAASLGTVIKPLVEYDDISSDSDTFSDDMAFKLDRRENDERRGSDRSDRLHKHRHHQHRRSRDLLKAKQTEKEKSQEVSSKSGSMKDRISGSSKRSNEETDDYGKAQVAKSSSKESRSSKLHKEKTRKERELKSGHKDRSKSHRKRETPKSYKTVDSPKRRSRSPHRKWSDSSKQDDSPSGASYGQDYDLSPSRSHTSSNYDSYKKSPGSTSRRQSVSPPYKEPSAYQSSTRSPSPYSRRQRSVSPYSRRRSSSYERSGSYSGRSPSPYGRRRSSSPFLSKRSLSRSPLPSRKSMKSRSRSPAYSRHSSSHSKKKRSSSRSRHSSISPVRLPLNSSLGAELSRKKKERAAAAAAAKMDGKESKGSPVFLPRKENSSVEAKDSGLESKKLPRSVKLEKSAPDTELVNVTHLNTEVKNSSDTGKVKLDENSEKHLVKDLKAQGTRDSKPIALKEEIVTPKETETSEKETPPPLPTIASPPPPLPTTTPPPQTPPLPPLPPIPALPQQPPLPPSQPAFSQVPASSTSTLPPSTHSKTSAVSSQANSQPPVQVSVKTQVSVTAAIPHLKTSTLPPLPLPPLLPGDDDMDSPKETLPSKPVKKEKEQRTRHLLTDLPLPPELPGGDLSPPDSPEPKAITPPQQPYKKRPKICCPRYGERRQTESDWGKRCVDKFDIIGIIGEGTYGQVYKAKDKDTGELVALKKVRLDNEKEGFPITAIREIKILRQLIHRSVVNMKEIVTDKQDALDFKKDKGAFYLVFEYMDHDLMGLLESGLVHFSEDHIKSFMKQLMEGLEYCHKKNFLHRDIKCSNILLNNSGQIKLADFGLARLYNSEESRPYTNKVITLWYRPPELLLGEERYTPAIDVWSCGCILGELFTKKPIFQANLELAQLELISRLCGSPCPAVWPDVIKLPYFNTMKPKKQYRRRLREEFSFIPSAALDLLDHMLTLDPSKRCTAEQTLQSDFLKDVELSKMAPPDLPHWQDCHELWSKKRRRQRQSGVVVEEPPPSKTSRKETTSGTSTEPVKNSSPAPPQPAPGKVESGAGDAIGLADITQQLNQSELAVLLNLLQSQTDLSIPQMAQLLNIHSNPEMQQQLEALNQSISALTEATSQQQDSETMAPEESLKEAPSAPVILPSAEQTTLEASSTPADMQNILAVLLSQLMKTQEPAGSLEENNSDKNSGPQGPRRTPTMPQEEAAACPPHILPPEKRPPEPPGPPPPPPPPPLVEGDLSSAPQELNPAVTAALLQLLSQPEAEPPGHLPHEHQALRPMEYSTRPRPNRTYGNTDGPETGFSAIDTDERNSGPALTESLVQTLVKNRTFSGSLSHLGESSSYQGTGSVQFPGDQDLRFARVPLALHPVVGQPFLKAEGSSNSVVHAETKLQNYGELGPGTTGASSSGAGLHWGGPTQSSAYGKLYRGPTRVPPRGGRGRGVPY
Ribosomal protein S6 kinase alpha-1, sequence (Q15418 whole entry): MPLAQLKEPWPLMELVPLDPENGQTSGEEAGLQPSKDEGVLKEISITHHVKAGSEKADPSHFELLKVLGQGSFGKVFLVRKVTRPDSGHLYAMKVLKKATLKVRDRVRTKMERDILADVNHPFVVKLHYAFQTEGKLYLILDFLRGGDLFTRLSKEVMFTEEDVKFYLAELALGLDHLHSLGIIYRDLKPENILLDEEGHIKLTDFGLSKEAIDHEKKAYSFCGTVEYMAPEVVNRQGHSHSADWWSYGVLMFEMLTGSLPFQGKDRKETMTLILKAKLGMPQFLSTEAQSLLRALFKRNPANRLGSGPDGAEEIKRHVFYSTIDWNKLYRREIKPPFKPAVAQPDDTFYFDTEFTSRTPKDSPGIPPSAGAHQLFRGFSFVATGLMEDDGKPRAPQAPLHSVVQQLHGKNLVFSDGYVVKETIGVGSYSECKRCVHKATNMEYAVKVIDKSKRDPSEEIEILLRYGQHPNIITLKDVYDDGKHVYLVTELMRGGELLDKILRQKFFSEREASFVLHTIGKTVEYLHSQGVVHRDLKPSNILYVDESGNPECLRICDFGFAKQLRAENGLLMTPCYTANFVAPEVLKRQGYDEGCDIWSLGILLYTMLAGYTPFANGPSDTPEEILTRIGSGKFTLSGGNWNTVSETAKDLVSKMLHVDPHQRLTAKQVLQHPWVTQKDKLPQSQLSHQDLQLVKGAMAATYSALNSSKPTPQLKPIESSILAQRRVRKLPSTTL
Dual specificity testis-specific protein kinase 2, sequence (Q96S53 whole entry): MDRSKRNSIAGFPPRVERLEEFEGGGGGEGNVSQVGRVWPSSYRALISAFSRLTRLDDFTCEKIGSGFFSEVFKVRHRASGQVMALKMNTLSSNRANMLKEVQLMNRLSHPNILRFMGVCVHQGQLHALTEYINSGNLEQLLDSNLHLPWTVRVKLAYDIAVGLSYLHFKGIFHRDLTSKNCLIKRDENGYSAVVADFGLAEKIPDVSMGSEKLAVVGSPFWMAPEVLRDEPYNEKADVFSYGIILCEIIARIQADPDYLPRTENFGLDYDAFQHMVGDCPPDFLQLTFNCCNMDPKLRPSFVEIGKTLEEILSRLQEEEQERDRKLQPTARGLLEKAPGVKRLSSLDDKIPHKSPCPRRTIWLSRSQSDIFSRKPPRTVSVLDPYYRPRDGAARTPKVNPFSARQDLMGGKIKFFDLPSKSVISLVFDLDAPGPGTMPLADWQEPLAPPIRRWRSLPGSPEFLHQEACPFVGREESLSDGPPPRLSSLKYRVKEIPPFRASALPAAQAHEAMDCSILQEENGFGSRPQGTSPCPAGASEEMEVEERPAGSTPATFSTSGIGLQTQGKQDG

In the case of `C[C@H]1CNCCCN1S(=O)(=O)c1cccc2cncc(F)c12`, the Kd (on Misshapen-like kinase 1; in [1]; in [2]; in [3]; in assay [4]; in assay [5]) was > 30 µM (inactive) throughout. Besides, the Kd in assay [6], in assay [7] and in [8] was > 30 µM (inactive) throughout.
Take `O=C(Nc1c[nH]nc1-c1nc2cc(CN3CCOCC3)ccc2[nH]1)NC1CC1` [AT-9283]: the Kd (at Misshapen-like kinase 1; in assay [9]; in [10]; in assay [1]; in [3]; in [4]) was > 30 µM (inactive) in each case. Further, the Kd in assay [11] is > 30 µM (inactive); in [12], > 30 µM (inactive); in assay [5] it was 0.084 µM (active); in assay [6], 1.29 µM (active).
For the compound `CC(C)(C)c1nc(-c2cccc(NS(=O)(=O)c3c(F)cccc3F)c2F)c(-c2ccnc(N)n2)s1` [DABRAFENIB], the Kd (at Misshapen-like kinase 1; in assay [10]; in assay [1]; in assay [3]; in assay [4]; in assay [11]) was > 30 µM (inactive) each time. Besides, the Kd in assay [12] and in assay [8] was > 30 µM (inactive) throughout.
On to `Cc1cccc(-c2nn3c(c2-c2ccnc4ccc(C(N)=O)cc24)CCC3)n1` [GALUNISERTIB], for which the Kd at Misshapen-like kinase 1 was 0.018 µM; in [9], > 30 µM (inactive); in assay [10] it was > 30 µM (inactive); in [1], > 30 µM (inactive); in assay [2], > 30 µM (inactive); in [3], > 30 µM (inactive). Further, the Kd in assay [4] was 16.1 µM (active); in assay [11], > 30 µM (inactive); in assay [12], > 30 µM (inactive); in [5], > 30 µM (inactive); in assay [6] it was > 30 µM (inactive); in assay [7], > 30 µM (inactive). The Kd in [8] was > 30 µM (inactive).
For the compound `CNC(=O)c1nn(C)c2c1C(C)(C)Cc1cnc(Nc3ccc(N4CCN(C)CC4)cc3)nc1-2` [MILCICLIB], the Kd (at Misshapen-like kinase 1; in assay [9]; in assay [10]; in assay [1]; in assay [2]; in assay [3]) was > 30 µM (inactive) throughout. Also, the Kd was 0.236 µM (active) in [4]; > 30 µM (inactive) in assay [11]; > 30 µM (inactive) in [5]; > 30 µM (inactive) in [7]; > 30 µM (inactive) in assay [8].
Turning to `FC(F)(F)c1ccc(/C=C/c2nc(COc3ccc(CCCCn4ccnn4)cc3)co2)cc1` [MUBRITINIB], the equilibrium dissociation constant (Kd) at Misshapen-like kinase 1 was 1.77 µM (active); in assay [9], > 30 µM (inactive); in [10] it was > 30 µM (inactive); in [1], > 30 µM (inactive); in assay [2], > 30 µM (inactive); in assay [3], > 30 µM (inactive). Further, the Kd in [4], in [11], in assay [5], in assay [7] and in assay [8] was > 30 µM (inactive) in each case.
With `Cc1nc(Nc2n[nH]c3c2CN(C(=O)N[C@H](CN(C)C)c2ccccc2)C3(C)C)c2sccc2n1` [PF-03758309], the Kd on Misshapen-like kinase 1 is > 30 µM (inactive); in assay [9], > 30 µM (inactive); in [10], > 30 µM (inactive); in [1], > 30 µM (inactive); in assay [2], 0.82 µM (active); in assay [3], > 30 µM (inactive). The Kd was > 30 µM (inactive) in [4]; > 30 µM (inactive) in assay [11]; > 30 µM (inactive) in assay [12]; 0.21 µM (active) in assay [5]; > 30 µM (inactive) in [6].
Regarding `CNC(=O)c1cc(Oc2ccc(NC(=O)Nc3cc(C(C)(C)C)nn3-c3ccc4ncccc4c3)c(F)c2)ccn1` [REBASTINIB], the Kd at Misshapen-like kinase 1 was > 30 µM (inactive); in assay [9], > 30 µM (inactive); in assay [10], > 30 µM (inactive); in assay [1], 0.002 µM; in assay [2], > 30 µM (inactive); in [3], > 30 µM (inactive). Further, the Kd in assay [4] was > 30 µM (inactive); in [5], > 30 µM (inactive); in assay [7], 12.8 µM.
On to `O=c1[nH]ccc2cc(OC3CCNCC3)ccc12` [SAR-407899 FREE BASE], for which the Kd (at Misshapen-like kinase 1; in assay [9]; in assay [10]; in assay [1]; in assay [2]; in [3]) was > 30 µM (inactive) throughout. The Kd in assay [4], in assay [11], in assay [12], in [5], in assay [6] and in assay [7] was > 30 µM (inactive) throughout. In addition, in assay [8], the Kd is > 30 µM (inactive).
For `C[C@@H](NC(=O)c1ncnc(N)c1Cl)c1ncc(C(=O)Nc2cc(C(F)(F)F)c(Cl)cn2)s1` [TOVORAFENIB], the Kd (on Misshapen-like kinase 1; in assay [9]; in assay [10]; in assay [1]; in assay [2]; in assay [3]) was > 30 µM (inactive) in each case. The Kd in assay [4], in assay [11], in [5], in [6], in assay [7] and in assay [8] was > 30 µM (inactive) in each case.
